Results from patent US20170166928A1, “Compositions And Methods For Genetically Modifying Yeast” (priority 2015, published 2017).

Tested on: Candida albicans
Test: Growth of Candida albicans strains in medium with drug
Assay type: cell-based
Conditions: for doubling time: liquid growth in 1.2 μg/ml fluconazole; for drug resistance of cdr1/cdr1 cdr2/cdr2 double mutants versus parental isolate: clinical isolate Can90
Method: Candida albicans strain SC5314 was used for all experiments unless otherwise noted. The fluconazole-resistant C. albicans strain Can90 was kindly provided by the Massachusetts General Hospital. Yeast strains were grown in YPD (1% Bacto Yeast extract, 2% Bacto Peptone, 2% Dextrose) medium supplemented with 0.27 mM uridine, and selected using Nourseothricin (Nat) at a concentration of 200 μg/ml. Transformations were performed using the lithium acetate method (27). Flipout of Nat^R gene from Cas9-expressing Duet vector pV1025 was done by induction of flippase by growth in Difco yeast carbon base with bovine serum albumin, and screening for isolates that had lost the Nat^R gene. Filamentation experiments were performed with yeast grown overnight in liquid YPD, washed twice in RPMI-1640 medium (Cat #22400-105, Life Technologies) supplemented with 10% fetal bovine serum, and incubated in RPMI+10% FBS for the indicated time at a starting OD of 0.1. Growth curves were performed in a clear-bottomed 96-well plate, incubated with shaking at 30° C. in a Tecan Saphire^2 plate reader, reading optical density at 600 nm every 5 minutes for the indicated time. YPD-grown overnight yeast cultures were used to inoculate these wells to an initial OD of 0.05. CRISPR-mutagenized loci were verified by sequence analysis of PCR products amplified from the target locus and by restriction digest where applicable.

| Structure (SMILES) | drug sensitivity of snf1-K81R strain (SC5314 snf1-K81R) | doubling time (ade2 CDR1 CDR2 strain) [h] | doubling time (ade2 cdr1 cdr2 mutant) [h] | drug resistance of cdr1/cdr1 cdr2/cdr2 double mutants versus parental isolate |
| --- | --- | --- | --- | --- |
| OC(Cn1cncn1)(Cn1cncn1)c1ccc(F)cc1F [fluconazole] | hypersensitive | 6 | 12 | no longer displayed the hyper-resistance |
| C[C@@H]1C[C@@H]([C@H](O)CC2CC(=O)NC(=O)C2)C(=O)[C@@H](C)C1 [cycloheximide] |  |  |  | no longer displayed the hyper-resistance |
